Assay results: patent publication US20190225650A1, “PEPTIDOMIMETIC MACROCYCLES AND USE THEREOF IN REGULATING HIF1ALPHA” (AILERON THERAPEUTICS, INC., priority 2013, published 2019)
Bridge positions count the residues as written; N and C are the ends. Square brackets hold non-standard residues; d marks the D form. Peptide text beside a SMILES is read from it. R8 = C=CCCCCCC[C@@](C)(N)C(=O)O; S5 = C=CCCC[C@](C)(N)C(=O)O; Nle = CCCC[C@H](N)C(=O)O

Tests used:
HRE-bla ME-180 cells [1] = assay: Reporter gene assay (HRE-bla ME-180 HIF reporter, GeneBLAzer); type: cell-based, human; conditions: for EC50: 24 hour normoxia
How it was run: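 A FRET β-lactamase readout of HIF transcription was used. After compound treatment in 0.3% DMSO/media under normoxic conditions, 20 μl of 6× LiveBLAzer-FRET B/G (CCF4-AM) substrate was added. Plates sat 3 hr at room temperature in the dark and were read at 409 Ex/460Em and 409Ex/530Em on a Synergy 2. Inhibition was compared against DMSO vehicle controls, with chetomin as positive control.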

[2] = molecular target: T1, flag-tagged HIF1α (AA 786-826) / His6-tagged p300 (AA 323-423) complex (Homo sapiens, UniProt Q09472); assay: HIF1α p300 displacement assay (TR FRET, +CHAPS); type: binding; conditions: read-out: IC50 (nM) (HIF1α_p300 Displacement + CHAPS)
T1 construct: His6-tagged p300 (AA 323-423); made in house; host or cells: E. coli (pETDuet vector)
How it was run: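 In this TR-FRET displacement format, peptides compete HIF1α C-terminal transactivation domain off p300-CH. They were preincubated 1 h at room temperature with 300 nM complex in HEPES pH 7.4/NaCl buffer with 7.5 mM CHAPS and 1 mM DTT. Anti-His-D2 (4 nM) and anti-Flag-K (0.5 μM) followed for 2 h, and a one-site fit of the fluorescence ratio gave IC50.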

HRE-bla ME-180 cells [3] = assay: Cell proliferation assay (viability, MTT, 1% FBS); type: cell-based, human
How it was run: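 Viable cell number was measured with the CellTiter 96 (MTT) kit after compounds were applied for a 16 h normoxic (21% O2) pretreatment, followed by further normoxic or hypoxic (1% O2) culture. Cells: 2×10^4 ME-180 per well, Opti-MEM + 1% FBS, 0.5% DMSO vehicle.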

T1 sequence (Q09472 323-423, one chain of several): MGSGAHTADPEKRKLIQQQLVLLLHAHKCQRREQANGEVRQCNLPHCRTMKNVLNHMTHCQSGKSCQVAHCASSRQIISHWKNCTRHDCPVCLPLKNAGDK

Row | SMILES | 18 h Avg % max inhibition at top conc (HIF Rptr-24 hrs normoxia) (μM) (HRE-bla ME-180 cells [1]) | EC50 (HRE-bla ME-180 cells [1]) | IC50 [2] | Viability 1% FBS AVG (MTT V3-24 hr Normoxia) (μM) (HRE-bla ME-180 cells [3])
1 | CC[C@H](C)[C@H](NC(=O)[C@H](CCCNC(=N)N)NC(=O)[C@H](CC(=O)O)NC(=O)[C@H](CC(C)C)NC(=O)[C@H](C)NC(=O)[C@H](CCSC)NC(=O)[C@]1(C)CCCC=CCCC[C@](C)(NC(=O)[C@H](CCSC)NC(=O)[C@H](CC(C)C)NC(=O)[C@@H](NC(=O)[C@H](C)NC(=O)[C@H](CCC(N)=O)NC(=O)[C@H](CC(N)=O)NC(=O)[C@@H](NC(=O)[C@H](Cc2ccccc2)NC(C)=O)[C@@H](C)CC)C(C)C)C(=O)N[C@@H](CC(C)C)C(=O)N[C@@H](C(C)C)C(=O)N[C@@H]([C@@H](C)CC)C(=O)N1)C(N)=O [SP-271] (Ac-FINQAVLM[S5]LVI[S5]MALDRI-NH2; staple 9-13) | +++ (≤25 but <50: +++) | > 30 µM | > 700 nM | ++++ (≥30: ++++)
2 | CC[C@H](C)[C@H](NC(=O)[C@H](CCCNC(=N)N)NC(=O)[C@H](CC(=O)O)NC(=O)[C@H](CC(C)C)NC(=O)[C@H](C)NC(=O)[C@H](CCSC)NC(=O)[C@]1(C)CCCC=CCCC[C@](C)(NC(=O)[C@H](CCSC)NC(=O)[C@H](CC(C)C)NC(=O)[C@@H](NC(=O)[C@H](CCCCN)NC(=O)[C@H](CCC(=O)O)NC(=O)[C@H](CC(N)=O)NC(=O)[C@@H](NC(=O)[C@H](Cc2ccccc2)NC(C)=O)[C@@H](C)CC)C(C)C)C(=O)N[C@@H](CC(C)C)C(=O)N[C@@H](C(C)C)C(=O)N[C@@H]([C@@H](C)CC)C(=O)N1)C(N)=O [SP-285] (Ac-FINEKVLM[S5]LVI[S5]MALDRI-NH2; staple 9-13) | +++ (≤25 but <50: +++) | > 30 µM | > 700 nM | ++++ (≥30: ++++)
3 | CCCC[C@H](NC(=O)[C@H](CCC(=O)O)NC(=O)[C@@H](NC(=O)[C@@H](NC(=O)[C@H](CC(C)C)NC(=O)[C@]1(C)CCCC=CCCC[C@](C)(NC(=O)[C@H](CCC(=O)O)NC(=O)[C@H](CC(=O)O)NC(=O)[C@@H](NC(=O)[C@H](CC(N)=O)NC(=O)[C@@H](NC(=O)[C@H](CCC(N)=O)NC(=O)[C@H](CC(=O)O)NC(=O)[C@H](CC(C)C)NC(=O)[C@H](C)NC(=O)[C@H](CCCNC(=N)N)NC(=O)[C@H](CC(C)C)NC(=O)[C@H](CC(C)C)NC(=O)[C@H](CCC(=O)O)NC(=O)[C@H](CCC(=O)O)NC(=O)CNC(=O)[C@H](CCC(N)=O)NC(=O)[C@H](CC(C)C)NC(=O)[C@H](CC(C)C)NC(C)=O)C(C)C)[C@@H](C)CC)C(=O)N[C@@H](C(C)C)C(=O)N[C@@H](CC(C)C)C(=O)N[C@@H](CCCC)C(=O)N1)C(C)C)[C@@H](C)CC)C(N)=O [SP-334] (Ac-LLQGEELLRALDQVNIDE[S5]VL[Nle][S5]LVIE[Nle]-NH2; staple 19-23) | + (<10: +) | > 30 µM | 200 to 400 nM | ++++ (≥30: ++++)
4 | CC[C@H](C)[C@H](NC(=O)[C@H](CCCNC(=N)N)NC(=O)[C@H](CC(=O)O)NC(=O)[C@H](CC(C)C)NC(=O)[C@H](C)NC(=O)[C@H](CCSC)NC(=O)[C@]1(C)CCCC=CCCC[C@](C)(NC(=O)[C@H](CCSC)NC(=O)[C@H](Cc2ccccc2)NC(=O)[C@@H](NC(=O)[C@H](CCC(=O)O)NC(=O)[C@H](CCC(=O)O)NC(=O)[C@H](CC(=O)O)NC(=O)[C@@H](NC(=O)[C@H](Cc2ccccc2)NC(C)=O)[C@@H](C)CC)C(C)C)C(=O)N[C@@H](CC(C)C)C(=O)N[C@@H](C(C)C)C(=O)N[C@@H]([C@@H](C)CC)C(=O)N1)C(N)=O [SP-264] (Ac-FIDEEVFM[S5]LVI[S5]MALDRI-NH2; staple 9-13) | ++ (≤10 but <25: ++) | 15 to 30 µM | 400 to 700 nM | ++++ (≥30: ++++)
5 | CCCC[C@H](NC(=O)[C@]1(C)CCCC=CCCCCCC[C@@](C)(NC(=O)[C@H](CCC(=O)O)NC(=O)[C@H](CCC(=O)O)NC(=O)[C@H](CC(=O)O)NC(=O)[C@@H](NC(=O)[C@H](CC(N)=O)NC(=O)[C@@H](NC(=O)[C@H](CCC(N)=O)NC(=O)[C@H](CC(=O)O)NC(=O)[C@H](CC(C)C)NC(=O)[C@H](C)NC(=O)[C@H](CCCNC(=N)N)NC(=O)[C@H](CC(C)C)NC(=O)[C@H](CC(C)C)NC(=O)[C@H](CCC(=O)O)NC(=O)[C@H](CCC(=O)O)NC(=O)CNC(=O)[C@H](CCC(N)=O)NC(=O)[C@H](CC(C)C)NC(=O)[C@H](CC(C)C)NC(C)=O)C(C)C)[C@@H](C)CC)C(=O)N[C@@H](CC(C)C)C(=O)N[C@@H](CCCC)C(=O)N[C@@H](CO)C(=O)N[C@@H](CC(C)C)C(=O)N[C@@H](C(C)C)C(=O)N[C@@H]([C@@H](C)CC)C(=O)N1)C(N)=O [SP-337] (Ac-LLQGEELLRALDQVNIDEE[R8]L[Nle]SLVI[S5][Nle]-NH2; staple 20-27) | + (<10: +) | > 30 µM | 400 to 700 nM | ++++ (≥30: ++++)
